Measured values as given in patent US20160206604A1, “FORMULATIONS COMPRISING WETTING AGENTS AND COMPOUNDS FOR THE MODULATION OF HEMOGLOBIN (S)” (GLOBAL BLOOD THERAPEUTICS, INC., priority 2013, published 2016).
Several values for one entry are separate records, joined by “and”; a condition that tells them apart may be missing. Equal entries are not always repeated. Where two headings read alike, the source gives them in different places.

Tests used:
[1] = Pharmacokinetics of compound 12 following oral administration of compound 53 formulation, rats; details: following oral administration 10 mg/kg
HbS [2] = molecular target: T1, HbS (Homo sapiens, UniProt P68871+P69905, E7V); experiment: Reverse Hemox assay (oxygen equilibrium curves of whole blood); format: cell-based; parameters: Oxygen Equilibrium Curves (OEC) of whole blood before and after treatment; from tissue; host or cells: whole blood (red blood cells) of homozygous sickle cell patients; details: 1 mM compound, sickle cell whole blood; for Reverse Hemox (1 mM)/(delta p50%): hematocrit 20%, 1 hour 37° C.
Protocol: Oxygen Equilibrium Curves (OEC) of whole blood before and after treatment with different concentrations of compounds 12, 22 and 23 were performed as follows using a HEMOX analyzer (TCS Scientific, New Hope, Pa.). Blood samples from homozygous sickle cell patients were obtained though the Hemoglobinopathy Center at Children's Hospital Oakland Research Institute (CHORI) with Institutional Review Board approval. The hematocrit was adjusted to 20% using autologous plasma and the blood samples were incubated for 1 hour at 37° C. in absence or presence of compounds. 100 μl of these samples were added to 5 mL of Hemox buffer (30 mM TES, 130 mM NaCl, 5 mM KCl, pH=7.4) at 37° C. and then transferred to the Hemox sample chamber. The samples were saturated with oxygen by flushing with compressed air for 10 minutes. The samples were then flushed with pure nitrogen and the respective absorbances of oxy- and deoxy-Hb were recorded as a function of the solution pO2. The oxygen equilibrium data were then fitted to the Hill Model to obtain values for p50. The deoxygenation curves for both whole blood alone (control) and whole blood in the presence of the compound were collected with the TCS software.
Results: Table 3 below lists the delta p50% values where “+” indicates a delta p50% of between 0 and 29, “++” indicates a delta p50% of between 30 and 50, and “+++” indicates a delta p50% of 50 or greater.

[3] = Pharmacokinetics of compound 12 suspension formulation (methylcellulose/sodium dodecyl sulfate), oral, rats; format: in vivo, Sprague-Dawley rats
Protocol: (§1) Blood samples were collected at different time points. Blood was anti-coagulated by 3.2% TSC (trisodium citrate) and a portion was separated into plasma fraction by centrifugation and removal of blood cells. Plasma and lysed blood samples were analyzed for drug concentration using LC-MS/MS. PK parameters were calculated by non compartmental analysis of the concentration-time profiles using WinNonLin software (Pharsight, Mountain View, Calif.). Apparent elimination half-life (t1/2) values were calculated as ln(2)/k. Area under the concentration-time curve (AUC) values were estimated using the linear trapezoidal method. AUClast values were calculated from the dosing time to the last measurable concentration. AUCinf values were calculated as the sum of the corresponding AUClast and the ratio of the last detectable concentration divided by k. Plasma clearance (Cl) is calculated from Dose/AUCinf. Volume of distribution at steady state (Vss) is calculated from Mean Residence Timeinf×Clss. Maximum concentration (Cmax) and time to Cmax (Tmax) was recorded as observed. The blood/plasma partitioning ratio was calculated at each experimental time point.
A suspension of Compound 12 was prepared by triturating 250 mg of compound 12 in a mortar with 2 mL of 0.5% methylcellulose in water and 200 μL of 0.5% sodium dodecyl sulfate. After approximately 5 minutes, the suspension was homogeneous. The volume of the mixture was adjusted to 12.5 mL with 0.5% methylcellulose to obtain a final concentration of 20 mg/mL. To prepare a 10 mg/mL suspension of compound 12, the 20 mg/mL suspension was diluted two-fold with 0.5% methylcellulose.
Pharmacokinetics of compound 12 following an oral administration of compound 12 suspension at 50 mg/kg or 100 mg/kg were studied in male Sprague-Dawley rats (n=3/group) using the method described in Example 1. Maximum blood concentration of compound 12 was achieved within 6 hours. The maximum concentrations at 50 mg/kg and 100 mg/kg compound 12 were 281 μg/mL (903 μM) and 327 μg/mL (1050 μM), respectively.

hemoglobin = hemoglobin (Homo sapiens, UniProt P68871+P69905); experiment: In vitro system measuring binding to hemoglobin and human serum albumin; details: both proteins present in their respective physiologic ratio
Protocol: However, when the red blood cell compartment is considered, compound 12 unexpectedly partitions into blood to a far greater extent than compound 22 or compound 23. […] When the red blood cell/plasma ratio was measured at the peak concentration, compound 12 partitioned at a ratio of 70 to 1 into the erythrocytes attesting to its preferential partition into the compartment which contains the drug target hemoglobin. Supportive data was reported in an in vitro system measuring binding of compound 12 to hemoglobin and human serum albumin.

HbS [4] = molecular target: T1, HbS; experiment: Polymerization assay; format: biochemical; parameters: HbS is purified by the CRO VIRUSYS, from blood obtained from homozygous sickle cell patients; tissue VIRUSYS (CRO that did the purification); host or cells: blood of homozygous sickle cell patients; details: 75 μM compound; for Polymerization (75 μM)/(% DT): 50 μM purified HbS, percent delay time
Protocol: Polymerization assays are carried out in vitro using purified HBS exchanged into 1.8 M potassium phosphate buffer at pH 7.4. Using a slightly modified protocol (Antonini and Brunori, 1971), HbS is purified by the CRO VIRUSYS, from blood obtained from homozygous sickle cell patients through the Hemoglobinopathy Center at Children's Hospital Oakland Research Institute (CHORI) with Institutional Review Board approval. Compounds are prepared in 100% DMSO and a desired amount is added to 50 μM of purified HbS at a final DMSO concentration of 0.3%. Final potassium phosphate concentration is adjusted to 1.8 M using a combination of 2.5 M potassium phosphate stock solution and water at pH 7.4. The reaction mixture is incubated for an hour at 37° C. and then transferred into a 24-well plate for deoxygenation in a glove box containing 99.5% nitrogen and 0.5% oxygen. The 24-well plate is not covered and incubated at 4° C. on a plate cooler inside the glove box for one and a half hours. Fifty μL of the reaction mixture is transferred into a 96-well plate and the absorbance at 700 nm is measured every minute for one hour at 37° C. in a plate reader located inside the glove box. A plot of the absorbance against time is fitted using a Boltzman sigmoidal fit and the delay time (from zero to time at half Vmax) is measured. To compare and rank compounds, delay times are expressed as percent delay (% DT), which is defined as the difference in delay times for HbS/compound and HbS alone multiplied by 100 and divided by the delay time for HbS alone.
Results: Compounds listed below have been tested in the polymerization assay. Activity ranges are defined by the number of dagger (†) symbols indicated. † denotes activity ≧40% but ≦80%; †† denotes activity >80% but ≦120%; ††† denotes activity >120% but ≦140%; †††† denotes activity >[…].

HbS/A = molecular target: T2, HbS/A (Homo sapiens, UniProt P68871+P69905, E7V); experiment: R/T assay (relaxed-to-tense transition assay); format: biochemical; details: for R-T (9 μM)/(delta R), class / R-T (9 μM)/(delta R): 9 μM compound; for R-T (9 μM)/(delta R) / R-T (10 μM)/(delta R): 3 μM HbS/A; for R-T (10 μM)/(delta R), class / R-T (10 μM)/(delta R): 10 μM compound
T2 construct: A mixture of HbS/A was purified from blood obtained from homozygous sickle cell patients; from tissue; host or cells: blood of homozygous sickle cell patients; hemoglobin purified from it
Protocol: This ability can be expressed as a “delta R” value (i.e., the change in the time-period of the R state after hemoglobin is treated with a compound, as compared to the period without treatment with the compound). Delta R is the % R to remaining after the compounds treatment compared with no treatment (e.g. if R % without treatment is 8% while with treatment with a target compound is 48% R at 30 μM, then % R is 40% for that compound.
A mixture of HbS/A was purified from blood obtained from homozygous sickle cell patients though the Hemoglobinopathy Center at Children's Hospital Oakland Research Institute (CHORI) with Institutional Review Board approval. HbS/A (at a final concentration of 3 μM) was incubated for 1 hr at 37° C. in presence or absence of compounds in […] potassium phosphate buffer, pH=7.4 and 30 μM 2, 3 diphosphoglycerate (DPG) in 96 well plates in a final volume of 160 μl. Compounds were added at different concentrations (3 μM to 100 μM final concentrations). Plates were covered with a Mylar film. After incubation was completed the Mylar cover was removed and the plates were placed in a Spectrostar Nano plate reader previously heated at 37° C. Five minutes later, N2 (flow rate=20 L/min) was flowed through the spectrophotometer. Spectroscopic measurements (300 nm to 700 nm) were taken every 5 min for 2 hours. Data analysis was performed by using linear regression from the data retrieved for all wavelengths.
Results: Table 3 below lists the delta R values where “+” indicates a delta R of between 0 and 30, “++” indicates a delta R of between 30 and 50, and “+++” indicates a delta R of 50 or greater.

[5] = Pharmacokinetic (PK) properties in rats, oral or intravenous dosing; format: in vivo, Rats (Sprague-Dawley); details: for blood plasma ratio: male, Sprague-Dawley, rat, whole blood and plasma, po, 10 mg/kg, dosed orally
Protocol: This experiment was established and used in order to assess the pharmacokinetic (PK) properties of the compounds.
Sample collection and data analysis: Rats (Sprague-Dawley, male, 8-12 weeks old) were dosed with one of three compounds corresponding to compound 12, compound 22 or compound 23. The rats received oral (10 mg/kg) or intravenous (1 mg/kg) doses of the compound. Rats were fasted overnight before the experiments and provided with food after the 2 hour sampling time point.
as §1

[6] = overall exposure, read-out: Blood/plasma (Ratio of exposure AUCINF)

CC(C)n1nccc1-c1ncccc1COc1cccc(OP(=O)(O)O)c1C=O [Compound 53, 2-formyl-3-((2-(1-isopropyl-1H-pyrazol-5-yl)pyridin-3-yl)methoxy)phenyl dihydrogen phosphate]
in vivo conversion of prodrug [1]: converted to compound 12

CC(C)n1nccc1-c1ncccc1COc1cccc(O)c1C=O [Compound 12, 2-hydroxy-6-[[2-(2-propan-2-ylpyrazol-3-yl)pyridin-3-yl]methoxy]benzaldehyde]
Reverse Hemox (1 mM)/(delta p50%), class (HbS [2]): +++ (“+++” indicates a delta p50% of 50 or greater)
Reverse Hemox (1 mM)/(delta p50%) (HbS [2]): 79.83%
AUC(0-inf) ([3]; male, Sprague-Dawley, rat, blood, oral suspension 50 mg/kg): 7340 µg·h/mL
half-life ([3]; male, Sprague-Dawley, rat, blood, oral suspension 50 mg/kg or 100 mg/kg, read-out: mean terminal half-life): 16 to 19 h
AUC(0-inf) ([3]; male, Sprague-Dawley, rat, blood, oral suspension 100 mg/kg): 9460 µg·h/mL
time to maximum blood concentration ([3]; oral suspension 50 mg/kg or 100 mg/kg): ≤ 6 h
maximum concentration ([3]; oral suspension 50 mg/kg, blood): 281 μg/mL and 903 μM
maximum concentration ([3]; oral suspension 100 mg/kg, blood): 327 μg/mL and 1050 μM
binding to hemoglobin versus human serum albumin (hemoglobin): preferentially binding to hemoglobin
Polymerization (75 μM)/(% DT), class (HbS [4]): †† (†† denotes activity >80% but ≦120%)
Polymerization (75 μM)/(% DT) (HbS [4]): 108.56%
R-T (9 μM)/(delta R), class (HbS/A): +++ (“+++” indicates a delta R of 50 or greater)
R-T (9 μM)/(delta R) (HbS/A): 65.45
R-T (10 μM)/(delta R), class (HbS/A): +++ (“+++” indicates a delta R of 50 or greater)
R-T (10 μM)/(delta R) (HbS/A): 62.75
red blood cell/plasma ratio at the peak concentration ([5]; ratio to 1 into erythrocytes): 70

COc1cc(C=O)c(OCc2cccnc2-c2ccccc2C)cn1 [Compound 23, 2-methoxy-5-[[2-(2-methylphenyl)pyridin-3-yl]methoxy]pyridine-4-carbaldehyde]
Reverse Hemox (1 mM)/(delta p50%), class (HbS [2]): +++ (“+++” indicates a delta p50% of 50 or greater)
Reverse Hemox (1 mM)/(delta p50%) (HbS [2]): 72.45%
Polymerization (75 μM)/(% DT), class (HbS [4]): †† (†† denotes activity >80% but ≦120%)
Polymerization (75 μM)/(% DT) (HbS [4]): 98.19%
R-T (9 μM)/(delta R), class (HbS/A): ++ (“++” indicates a delta R of between 30 and 50)
R-T (9 μM)/(delta R) (HbS/A): 37.15
R-T (10 μM)/(delta R), class (HbS/A): +++ (“+++” indicates a delta R of 50 or greater)
R-T (10 μM)/(delta R) (HbS/A): 51.55
blood plasma ratio ([5]; at Cmax, read-out: Blood/plasma (Ratio of peak concentration)): 3
blood plasma ratio [5, 6]: 1

COc1cc(C=O)c(OCc2cccnc2-c2ccnn2CC(F)F)cn1 [Compound 22, 5-[[2-[2-(2,2-difluoroethyl)pyrazol-3-yl]pyridin-3-yl]methoxy]-2-methoxypyridine-4-carbaldehyde]
Reverse Hemox (1 mM)/(delta p50%), class (HbS [2]): +++ (“+++” indicates a delta p50% of 50 or greater)
Reverse Hemox (1 mM)/(delta p50%) (HbS [2]): 68.69%
Polymerization (75 μM)/(% DT), class (HbS [4]): †† (†† denotes activity >80% but ≦120%)
Polymerization (75 μM)/(% DT) (HbS [4]): 90.22%
R-T (9 μM)/(delta R), class (HbS/A): ++ (“++” indicates a delta R of between 30 and 50)
R-T (9 μM)/(delta R) (HbS/A): 31.02
R-T (10 μM)/(delta R), class (HbS/A): ++ (“++” indicates a delta R of between 30 and 50)
R-T (10 μM)/(delta R) (HbS/A): 36.25
blood plasma ratio [5, 6]: 5
